Results as given in US8314215B2, “Mild chemically cleavable linker system” (The Board of Trustees of the Leland Stanford Junior …, priority 2006, dated 2012).

What was measured:
[1] = Background peptides, chemical elution versus on-bead digestion; set-up: species or system mouse; settings: chemical elution compared with on-bead digestion
Description: (§1) After enrichment on immobilized avidin, each of the three labeled proteomes (FIG. 5b) was divided into two aliquots. One was prepared for LC-MS/MS analysis by “on bead” digestion, while the other was chemically eluted and digested “in solution.” Proteins identified in each tissue lysate are listed with their accession number and theoretical molecular weight (MW). To compare both approaches, the number of identified peptides and percentage of amino acid sequence coverage is listed for each protein.
Carboxylesterase 4 has not been characterized on a functional level and has never been confirmed to be catalytically active (Rawlings, N. D., Morton, F. R., and Barrett, A. J. (2006) MEROPS: the peptidase database. Nucleic Acids Res 34, D270-272.). […] Overall the level of background peptides was decreased by over 90%, when chemical elution was used for the sample preparation (as shown in the above Table). Although the number of carboxylesterase peptides identified was reduced compared to the on-bead sample we could still make a confident identification with nearly 40% coverage of peptide sequence.

[2] = target: T1, propionyl-Coenzyme A carboxylase (Mus musculus, UniProt Q91ZA3); test: LC/MS/MS identification of proteins from mouse liver extracts labeled with MTS-I-49; assay type: biochemical
T1 construct: from tissue; host or cells: mouse liver extract
T1 sequence (Q91ZA3 49-724): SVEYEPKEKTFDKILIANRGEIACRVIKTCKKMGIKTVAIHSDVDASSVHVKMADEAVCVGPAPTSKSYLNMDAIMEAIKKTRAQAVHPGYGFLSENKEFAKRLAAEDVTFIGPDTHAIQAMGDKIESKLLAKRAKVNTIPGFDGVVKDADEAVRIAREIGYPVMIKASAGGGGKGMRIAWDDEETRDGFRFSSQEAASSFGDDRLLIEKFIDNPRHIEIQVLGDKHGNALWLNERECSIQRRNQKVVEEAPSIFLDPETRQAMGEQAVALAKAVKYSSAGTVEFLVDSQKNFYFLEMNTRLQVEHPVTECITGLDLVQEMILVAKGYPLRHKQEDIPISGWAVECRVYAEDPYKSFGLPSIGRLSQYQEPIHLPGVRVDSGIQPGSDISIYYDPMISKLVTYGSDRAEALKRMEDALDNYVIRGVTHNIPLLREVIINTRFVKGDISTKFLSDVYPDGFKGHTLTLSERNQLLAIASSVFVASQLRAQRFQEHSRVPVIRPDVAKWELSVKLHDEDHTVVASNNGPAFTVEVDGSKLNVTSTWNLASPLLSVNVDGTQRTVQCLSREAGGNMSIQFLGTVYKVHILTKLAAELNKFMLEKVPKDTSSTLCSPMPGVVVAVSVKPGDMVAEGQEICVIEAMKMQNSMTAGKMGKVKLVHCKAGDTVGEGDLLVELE
T1 sequence (Q99MN9 29-541 partner): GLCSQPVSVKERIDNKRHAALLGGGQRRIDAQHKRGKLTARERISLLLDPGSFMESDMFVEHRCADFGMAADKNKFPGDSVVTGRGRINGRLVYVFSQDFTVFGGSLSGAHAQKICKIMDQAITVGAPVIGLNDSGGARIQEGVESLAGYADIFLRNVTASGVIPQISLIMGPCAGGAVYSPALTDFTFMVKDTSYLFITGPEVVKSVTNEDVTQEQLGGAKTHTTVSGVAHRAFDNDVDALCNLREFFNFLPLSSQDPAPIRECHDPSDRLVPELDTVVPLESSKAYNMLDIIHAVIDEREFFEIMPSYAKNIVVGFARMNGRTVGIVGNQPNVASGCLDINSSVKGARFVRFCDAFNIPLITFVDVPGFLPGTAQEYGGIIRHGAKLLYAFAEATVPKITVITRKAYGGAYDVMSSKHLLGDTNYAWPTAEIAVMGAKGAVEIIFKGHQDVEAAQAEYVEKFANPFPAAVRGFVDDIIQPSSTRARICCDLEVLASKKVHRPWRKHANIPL
Text: (§2) (1991) Irreversible inhibition of serine proteases by peptide derivatives of (alpha-aminoalkyl)phosphonate diphenyl esters. Biochemistry 30, 485-493). However, it has not been used for any proteomic applications. We used MTS-I-49 to label mouse liver extracts and analyze the labeled sample by both SDS-PAGE (FIG. 5B) and by direct chemical cleavage or on bead digestion.
as §1
(§3) Proteins in the above Table were identified by LC/MS/MS analysis of on bead digested or chemically eluted proteins from mouse liver extracts labeled with MTS-I-49. […] BLAST database searching identified it as liver carboxylesterase 4. A number of additional endogenously biotinylated proteins were identified in the on-bead digested sample.

hemoglobin alpha 1 = target: T2, hemoglobin alpha 1 (Mus musculus, UniProt P01942); test: as above; assay type: biochemical
T2 construct: from tissue; host or cells: mouse liver extract
Text: as §2, §1, §3

[3] = target: T3, methionine adenosyltransferase 1 (Mus musculus, UniProt Q91X83); test: as above; assay type: biochemical
T3 construct: from tissue; host or cells: mouse liver extract
Text: as §2, §1, §3

[4] = chemically eluted, digested in solution

T2 sequence (P01942 2-142 limits assumed): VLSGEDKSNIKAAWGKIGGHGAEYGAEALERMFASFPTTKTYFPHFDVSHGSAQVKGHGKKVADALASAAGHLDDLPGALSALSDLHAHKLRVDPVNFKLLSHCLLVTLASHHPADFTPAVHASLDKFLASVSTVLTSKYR
T2 sequence (P02088 2-147 partner limits assumed): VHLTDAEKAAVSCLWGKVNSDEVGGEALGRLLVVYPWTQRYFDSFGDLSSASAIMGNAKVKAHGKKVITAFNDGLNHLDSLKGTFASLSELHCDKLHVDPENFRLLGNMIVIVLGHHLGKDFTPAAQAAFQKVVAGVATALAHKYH
T3 sequence (Q91X83 whole entry): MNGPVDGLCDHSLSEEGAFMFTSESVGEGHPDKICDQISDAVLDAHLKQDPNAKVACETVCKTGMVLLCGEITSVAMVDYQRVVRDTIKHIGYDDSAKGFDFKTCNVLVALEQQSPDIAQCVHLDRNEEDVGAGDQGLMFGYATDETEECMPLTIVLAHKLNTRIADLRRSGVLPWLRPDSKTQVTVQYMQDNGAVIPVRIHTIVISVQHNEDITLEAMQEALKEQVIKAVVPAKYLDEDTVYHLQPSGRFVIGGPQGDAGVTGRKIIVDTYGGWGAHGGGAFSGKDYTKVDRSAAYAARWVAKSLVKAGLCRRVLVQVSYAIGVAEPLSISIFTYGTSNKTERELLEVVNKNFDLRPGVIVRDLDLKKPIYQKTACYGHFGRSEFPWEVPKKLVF

## C[C@H](NC(=O)c1ccc(N=Nc2cc(CCNC(=O)CCCC[C@@H]3SC[C@@H]4NC(=O)N[C@@H]43)ccc2O)cc1)C(=O)N[C@@H](C)C(=O)NC(Cc1ccccc1)P(=O)(Oc1ccccc1)Oc1ccccc1 (some centres unmarked) [MTS-I-49]
[1]
  decrease of the level of background peptides: over 90%
[2]; [4]
  Chemical Cleavage, amino acid sequence coverage: 8%
  Chemical Cleavage, number of identified peptides: 3
[2]; on bead digestion
  On Bead Digestion, amino acid sequence coverage: 45%
  On Bead Digestion, number of identified peptides: 22
Hemoglobin alpha 1; [4]
  Chemical Cleavage, number of identified peptides: 0
Hemoglobin alpha 1; on bead digestion
  On Bead Digestion, amino acid sequence coverage: 25%
  On Bead Digestion, number of identified peptides: 3
[3]; [4]
  Chemical Cleavage, number of identified peptides: 0
[3]; on bead digestion
  On Bead Digestion, amino acid sequence coverage: 9%
  On Bead Digestion, number of identified peptides: 2
